From ChEMBL document CHEMBL4321837, “Discovery of Potent and Orally Effective Dual Janus Kinase 2/FLT3 Inhibitors for the Treatment of Acute Myelogenous Leukemia and Myeloproliferative Neoplasms” (J Med Chem, 2019)
The source made the active and inactive calls. The rule behind the calls is not given here.

Columns and labels:
[1] = Anti-myelofibrosis activity against mouse BAF3(transformed) cells harboring with JAK2 V617F mutant allografted in NOD/SCID mouse assessed as reduction in liver weight at 60 mg/kg, po qd for 20 days measured on day 25 relative to control; assay type: functional
[2] = target: Vascular endothelial growth factor receptor 1 (Homo sapiens, UniProt P17948); assay: Inhibition of recombinant human FLT1 (783 to end residues) using KKKSPGEYVNIEF as substrate incubated for 40 mins in presence of [gamma33P]-ATP by scintillation counting based radiometry assay
Vascular endothelial growth factor receptor 1, sequence (P17948 whole entry): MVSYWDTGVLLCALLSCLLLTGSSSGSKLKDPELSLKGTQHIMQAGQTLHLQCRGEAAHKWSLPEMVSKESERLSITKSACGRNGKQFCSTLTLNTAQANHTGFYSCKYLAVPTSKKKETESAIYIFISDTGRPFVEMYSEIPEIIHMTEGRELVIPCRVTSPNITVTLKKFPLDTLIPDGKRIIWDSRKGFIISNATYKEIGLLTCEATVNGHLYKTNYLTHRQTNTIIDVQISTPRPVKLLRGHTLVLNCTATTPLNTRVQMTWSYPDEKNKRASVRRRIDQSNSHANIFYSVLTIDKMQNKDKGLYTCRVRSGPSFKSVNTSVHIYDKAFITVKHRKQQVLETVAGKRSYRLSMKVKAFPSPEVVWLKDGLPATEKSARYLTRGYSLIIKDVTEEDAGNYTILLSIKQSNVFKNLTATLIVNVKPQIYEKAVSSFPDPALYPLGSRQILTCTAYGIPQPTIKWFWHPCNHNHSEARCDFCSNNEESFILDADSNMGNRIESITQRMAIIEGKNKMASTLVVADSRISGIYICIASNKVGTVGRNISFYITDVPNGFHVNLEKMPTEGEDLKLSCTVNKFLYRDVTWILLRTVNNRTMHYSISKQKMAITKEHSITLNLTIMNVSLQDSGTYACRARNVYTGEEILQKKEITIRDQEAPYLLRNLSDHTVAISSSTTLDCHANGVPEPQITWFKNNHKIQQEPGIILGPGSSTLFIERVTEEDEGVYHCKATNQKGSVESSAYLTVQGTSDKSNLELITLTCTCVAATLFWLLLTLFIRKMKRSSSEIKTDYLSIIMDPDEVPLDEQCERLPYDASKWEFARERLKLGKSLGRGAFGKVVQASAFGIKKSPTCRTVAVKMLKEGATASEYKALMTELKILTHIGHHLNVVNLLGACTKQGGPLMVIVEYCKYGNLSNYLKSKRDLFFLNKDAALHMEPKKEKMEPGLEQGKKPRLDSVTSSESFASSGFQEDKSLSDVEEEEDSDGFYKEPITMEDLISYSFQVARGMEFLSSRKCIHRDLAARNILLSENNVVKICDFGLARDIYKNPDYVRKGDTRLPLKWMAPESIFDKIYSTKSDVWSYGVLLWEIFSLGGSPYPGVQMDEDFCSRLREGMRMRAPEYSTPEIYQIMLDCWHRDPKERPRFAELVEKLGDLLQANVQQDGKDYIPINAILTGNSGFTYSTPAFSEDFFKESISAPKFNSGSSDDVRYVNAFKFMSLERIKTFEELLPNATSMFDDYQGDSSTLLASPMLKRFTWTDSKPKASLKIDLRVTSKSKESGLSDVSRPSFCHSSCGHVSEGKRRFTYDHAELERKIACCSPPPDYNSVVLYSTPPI

[3] = test system: MV4-11; assay: Induction of cell cycle arrest in human MV4-11 cells assessed as accumulation at G2/M phase at 0.1 uM after 24 hrs by propidium iodide staining based flow cytometry analysis (reference value: 15.4%); assay type: functional
[4] = Anti-myelofibrosis activity against mouse BAF3(transformed) cells harboring with JAK2 V617F mutant allografted in NOD/SCID mouse assessed as reduction in spleen weight at 60 mg/kg, po qd for 20 days measured on day 25 relative to control; assay type: functional
[5] = Oral bioavailability in Sprague-Dawley rat at 5 mg/kg measured up to 24 hrs by LC/MS/MS analysis; assay type: ADME, organism-based; conditions: in vivo
[6] = Toxicity in NOD/SCID mouse xenografted with human SET2 cells overexpressing JAK2 V617F mutant assessed as body weight at 30 to 60 mg/kg, po qd for 18 days; assay type: organism-based; conditions: in vivo, 432 h
[7] = Half life in rat liver microsomes; assay type: ADME, Microsome
[8] = test system: MV4-11; assay: Induction of cell cycle arrest in human MV4-11 cells assessed as accumulation at G0/G1 phase at 0.01 uM after 24 hrs by propidium iodide staining based flow cytometry analysis (reference value: 54.49%); assay type: functional
[9] = Intrinsic clearance in monkey liver microsomes; assay type: ADME, Macaca mulatta, Microsome; conditions: rhesus monkey
[10] = test system: MV4-11; assay: Inhibition of JAK2/FLT3 ITD mutant in human MV4-11 cells assessed as reduction in STAT5 phosphorylation at 0.2 uM after 2 hrs by Western blot analysis; assay type: cell-based
[11] = test system: MV4-11; assay: Induction of apoptosis in human MV4-11 cells assessed as late apoptotic cells at 0.8 uM after 24 hrs by Annexin V FITC/PI staining based flow cytometry analysis (reference value: 1.38%); assay type: functional
[12] = species: Homo sapiens; assay: Inhibition of JAK2 V617F mutant/FLT3 in human SET2 cells assessed as reduction in FLT3 phosphorylation after 2 hrs by Western blot analysis; assay type: cell-based
[13] = test system: MV4-11; assay: Induction of apoptosis in human MV4-11 cells assessed as early apoptotic cells at 0.05 uM after 24 hrs by Annexin V FITC/PI staining based flow cytometry analysis (reference value: 2.14%); assay type: functional
[14] = target: CDK6/cyclin D3 (Homo sapiens, UniProt Q00534); assay: Inhibition of recombinant full length human CDK6/CyclinD3 using histone H1 as substrate incubated for 30 mins in presence of [gamma33P]-ATP by scintillation counting based radiometry assay; assay type: protein-complex assay
CDK6/cyclin D3, sequence (P30281 whole entry): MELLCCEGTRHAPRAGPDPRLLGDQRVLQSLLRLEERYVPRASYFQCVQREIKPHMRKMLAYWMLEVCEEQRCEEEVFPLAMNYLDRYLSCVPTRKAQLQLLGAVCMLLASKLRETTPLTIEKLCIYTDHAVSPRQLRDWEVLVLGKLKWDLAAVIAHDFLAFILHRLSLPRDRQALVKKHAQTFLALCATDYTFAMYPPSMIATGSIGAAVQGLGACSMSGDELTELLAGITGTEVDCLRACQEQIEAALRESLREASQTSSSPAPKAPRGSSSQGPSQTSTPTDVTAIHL
CDK6/cyclin D3, sequence (Q00534 whole entry): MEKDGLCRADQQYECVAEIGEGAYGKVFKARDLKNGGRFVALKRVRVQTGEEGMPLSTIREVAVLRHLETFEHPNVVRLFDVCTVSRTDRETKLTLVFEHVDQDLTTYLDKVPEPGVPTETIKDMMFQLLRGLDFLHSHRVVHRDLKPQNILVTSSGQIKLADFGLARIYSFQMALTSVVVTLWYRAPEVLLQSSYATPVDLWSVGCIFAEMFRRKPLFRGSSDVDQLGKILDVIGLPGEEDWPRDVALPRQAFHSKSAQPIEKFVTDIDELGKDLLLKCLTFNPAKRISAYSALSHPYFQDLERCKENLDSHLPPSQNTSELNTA

[15] = Toxicity in NOD/SCID mouse xenografted with FLT3-ITD-positive human MV4-11 cells assessed as animal survival at 30 to 60 mg/kg, po qd for 14 days; assay type: organism-based; conditions: in vivo
[16] = test system: HCT-116; assay: Antiproliferative activity against human HCT116 cells assessed as reduction in cell growth after 72 hrs by MTT assay; assay type: functional, cell-based
[17] = test system: MV4-11; assay: Induction of cell cycle arrest in human MV4-11 cells assessed as accumulation at G0/G1 phase at 0.05 uM after 24 hrs by propidium iodide staining based flow cytometry analysis (reference value: 54.49%); assay type: functional
[18] = Cmax in Sprague-Dawley rat at 5 mg/kg, po measured up to 24 hrs by LC/MS/MS analysis; assay type: ADME, organism-based; set-up: dose 5 mg/kg, route oral; conditions: in vivo, 24 h
[19] = test system: MV4-11; assay: Antitumor activity against FLT3-ITD-positive human MV4-11 cells xenografted in NOD/SCID mouse assessed as tumor growth inhibition at 30 mg/kg, po qd for 14 days measured every 2 days for 14 days by caliper method relative to control; assay type: functional; conditions: MV4-11, po, read-out: TGI
[20] = test system: MOLM-13; assay: Antiproliferative activity against FLT3-ITD-positive human MOLM13 cells assessed as reduction in cell growth after 72 hrs by MTT assay; assay type: functional, cell-based; conditions: MOLM-13, 72 h
[21] = test system: MV4-11; assay: Induction of apoptosis in human MV4-11 cells after 24 hrs by Annexin V FITC/PI staining based flow cytometry analysis; assay type: functional, cell-based
[22] = species: Homo sapiens; assay: Inhibition of JAK2 V617F mutant/FLT3 in human SET2 cells assessed as reduction in JAK2 phosphorylation at 0.2 uM after 2 hrs by Western blot analysis; assay type: cell-based
[23] = test system: MV4-11; assay: Inhibition of JAK2/FLT3 ITD mutant in human MV4-11 cells assessed as reduction in JAK2 phosphorylation at 0.2 uM after 2 hrs by Western blot analysis; assay type: cell-based
[24] = test system: MV4-11; assay: Induction of apoptosis in human MV4-11 cells assessed as necrotic cells at 0.05 uM after 24 hrs by Annexin V FITC/PI staining based flow cytometry analysis (reference value: 0.18%); assay type: functional
[25] = test system: MV4-11; assay: Induction of apoptosis in human MV4-11 cells assessed as early apoptotic cells at 0.2 uM after 24 hrs by Annexin V FITC/PI staining based flow cytometry analysis (reference value: 2.14%); assay type: functional
[26] = target: Cytochrome P450 3A4 (Homo sapiens, UniProt P08684); assay: Inhibition of CYP3A4 (unknown origin); assay type: ADME
Cytochrome P450 3A4, sequence (P08684 whole entry): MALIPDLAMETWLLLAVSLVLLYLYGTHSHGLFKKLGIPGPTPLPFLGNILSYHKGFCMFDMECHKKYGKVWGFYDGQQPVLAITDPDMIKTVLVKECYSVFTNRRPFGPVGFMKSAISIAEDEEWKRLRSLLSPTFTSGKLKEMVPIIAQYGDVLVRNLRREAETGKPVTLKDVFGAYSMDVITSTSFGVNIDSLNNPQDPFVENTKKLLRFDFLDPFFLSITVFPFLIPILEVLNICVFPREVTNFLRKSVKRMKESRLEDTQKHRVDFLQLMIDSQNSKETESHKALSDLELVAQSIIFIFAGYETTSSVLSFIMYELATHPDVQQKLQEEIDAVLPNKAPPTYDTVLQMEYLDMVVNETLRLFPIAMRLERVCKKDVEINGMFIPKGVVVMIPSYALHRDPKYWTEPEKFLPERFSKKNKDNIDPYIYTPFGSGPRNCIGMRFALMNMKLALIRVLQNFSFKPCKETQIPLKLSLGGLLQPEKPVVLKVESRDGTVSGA

[27] = target: Tyrosine-protein kinase Lck (Homo sapiens, UniProt P06239); assay: Inhibition of recombinant human full length human LCK using KVEKIGEGTYGVV as substrate incubated for 40 mins in presence of [gamma33P]-ATP by scintillation counting based radiometry assay
Tyrosine-protein kinase Lck, sequence (P06239 whole entry): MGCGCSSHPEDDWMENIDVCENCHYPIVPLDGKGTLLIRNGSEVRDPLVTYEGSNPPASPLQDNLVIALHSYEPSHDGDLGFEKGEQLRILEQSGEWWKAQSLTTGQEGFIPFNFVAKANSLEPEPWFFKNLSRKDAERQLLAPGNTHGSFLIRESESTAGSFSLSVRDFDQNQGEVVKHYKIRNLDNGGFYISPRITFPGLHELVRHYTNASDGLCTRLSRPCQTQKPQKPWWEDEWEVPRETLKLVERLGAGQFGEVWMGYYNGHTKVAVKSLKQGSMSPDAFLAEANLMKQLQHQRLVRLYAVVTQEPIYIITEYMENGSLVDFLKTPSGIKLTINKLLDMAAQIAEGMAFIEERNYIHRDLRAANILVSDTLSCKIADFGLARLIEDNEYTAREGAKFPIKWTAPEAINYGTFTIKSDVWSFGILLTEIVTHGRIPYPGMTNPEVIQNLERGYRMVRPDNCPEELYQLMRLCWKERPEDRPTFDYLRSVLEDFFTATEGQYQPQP

[28] = test system: MV4-11; assay: Induction of apoptosis in human MV4-11 cells assessed as necrotic cells at 1.6 uM after 24 hrs by Annexin V FITC/PI staining based flow cytometry analysis (reference value: 0.18%); assay type: functional
[29] = test system: MV4-11; assay: Induction of cell cycle arrest in human MV4-11 cells assessed as accumulation at S phase at 0.005 uM after 24 hrs by propidium iodide staining based flow cytometry analysis (reference value: 30.11%); assay type: functional
[30] = test system: MV4-11; assay: Induction of apoptosis in human MV4-11 cells assessed as late apoptotic cells at 0.2 uM after 24 hrs by Annexin V FITC/PI staining based flow cytometry analysis (reference value: 1.38%); assay type: functional
[31] = target: Receptor-type tyrosine-protein kinase FLT3 (Homo sapiens) (UniProt P36888); assay: Inhibition of human FLT3 (564 to end residues) assessed as residual activity at 100 nM using EAIYAAPFAKKK as substrate after 40 mins in presence of [gamma33P]-ATP by scintillation counting based radiometric assay relative to control
Receptor-type tyrosine-protein kinase FLT3 (Homo sapiens), sequence (P36888 whole entry): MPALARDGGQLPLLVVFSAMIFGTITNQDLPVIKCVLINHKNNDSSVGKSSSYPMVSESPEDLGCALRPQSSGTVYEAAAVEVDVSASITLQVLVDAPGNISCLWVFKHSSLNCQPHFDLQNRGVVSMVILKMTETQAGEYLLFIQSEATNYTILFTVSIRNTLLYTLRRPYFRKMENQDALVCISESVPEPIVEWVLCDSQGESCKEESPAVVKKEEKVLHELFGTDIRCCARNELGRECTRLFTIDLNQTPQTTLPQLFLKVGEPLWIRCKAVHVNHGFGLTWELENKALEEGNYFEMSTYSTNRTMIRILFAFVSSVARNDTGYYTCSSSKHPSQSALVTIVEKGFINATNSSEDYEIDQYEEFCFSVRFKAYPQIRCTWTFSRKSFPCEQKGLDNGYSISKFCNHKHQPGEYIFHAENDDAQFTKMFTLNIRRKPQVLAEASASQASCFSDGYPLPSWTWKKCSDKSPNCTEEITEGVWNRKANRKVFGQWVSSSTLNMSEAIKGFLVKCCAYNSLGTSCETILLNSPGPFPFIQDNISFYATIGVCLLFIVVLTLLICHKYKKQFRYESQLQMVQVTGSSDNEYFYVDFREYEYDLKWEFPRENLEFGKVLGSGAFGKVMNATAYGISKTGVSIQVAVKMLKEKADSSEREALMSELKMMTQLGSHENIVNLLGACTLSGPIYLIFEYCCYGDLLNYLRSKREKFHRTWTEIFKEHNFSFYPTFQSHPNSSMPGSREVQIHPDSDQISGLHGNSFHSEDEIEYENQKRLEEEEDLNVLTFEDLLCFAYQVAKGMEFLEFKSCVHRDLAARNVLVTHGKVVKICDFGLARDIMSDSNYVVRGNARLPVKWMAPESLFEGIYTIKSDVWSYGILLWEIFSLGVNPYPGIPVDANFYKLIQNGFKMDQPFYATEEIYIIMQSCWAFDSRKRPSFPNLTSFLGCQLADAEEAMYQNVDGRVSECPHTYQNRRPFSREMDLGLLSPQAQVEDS

[32] = test system: MV4-11; assay: Induction of apoptosis in human MV4-11 cells assessed as necrotic cells at 0.2 uM after 24 hrs by Annexin V FITC/PI staining based flow cytometry analysis (reference value: 0.18%); assay type: functional
[33] = test system: SET-2; assay: Antiproliferative activity against human SET2 cells overexpressing JAK2 […] mutant assessed as reduction in cell growth after 72 hrs by MTT assay; assay type: functional, cell-based; conditions: SET-2, 72 h
[34] = target: Cytochrome P450 2D6 (Homo sapiens, UniProt P10635); assay: Inhibition of CYP2D6 (unknown origin); assay type: ADME
Cytochrome P450 2D6, sequence (P10635 whole entry): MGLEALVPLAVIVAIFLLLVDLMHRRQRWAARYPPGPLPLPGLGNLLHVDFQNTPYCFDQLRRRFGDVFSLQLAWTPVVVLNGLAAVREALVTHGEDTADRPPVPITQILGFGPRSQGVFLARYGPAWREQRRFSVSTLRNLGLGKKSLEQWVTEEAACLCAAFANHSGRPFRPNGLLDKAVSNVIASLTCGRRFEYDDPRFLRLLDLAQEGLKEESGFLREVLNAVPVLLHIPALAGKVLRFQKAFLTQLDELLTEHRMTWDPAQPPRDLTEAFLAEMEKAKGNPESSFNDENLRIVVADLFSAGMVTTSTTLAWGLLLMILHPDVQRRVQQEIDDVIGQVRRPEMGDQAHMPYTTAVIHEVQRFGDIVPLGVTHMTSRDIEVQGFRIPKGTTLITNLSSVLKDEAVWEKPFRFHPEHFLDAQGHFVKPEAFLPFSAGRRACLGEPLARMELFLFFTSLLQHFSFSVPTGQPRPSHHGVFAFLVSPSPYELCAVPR

Q: For `Cc1cnc(Nc2ccc(N3CCC(N(C)CCO)CC3)c(F)c2)nc1-c1cnn(C(C)C)c1`, which inhibition in vivo at 60 mg/kg [1] is on record?
A: 94.3%

Q: And the IC50 [2]?
A: 22 nM

Q: And the Activity [3]?
A: 5.04%

Q: And the inhibition in vivo at 60 mg/kg [4]?
A: 59.5%

Q: And the bioavailability [5]?
A: 58%

Q: And the Activity [6]?
A: Non-Toxic

Q: What about the half-life [7] of the same molecule?
A: 12.8 h

Q: And the Activity [8]?
A: 58.55%

Q: And the CLH [9]?
A: 0.5 µL/min/mg

Q: And the inhibition [10]?
A: Active

Q: And the Activity [11]?
A: 29.3%

Q: What about the inhibition [12] of the same molecule?
A: Dose-dependent effect

Q: And the Activity [13]?
A: 5.53%

Q: What about the IC50 [14] of the same molecule?
A: 66 nM

Q: And the survival at 336 h [15]?
A: 100%

Q: And the Activity [16]?
A: Active

Q: And the Activity [17]?
A: 81.64%

Q: What about the Cmax [18] of the same molecule?
A: 102 ng/mL

Q: And the inhibition in vivo at 30 mg/kg [19]?
A: 58%

Q: And the IC50 [20]?
A: 72 nM

Q: And the Activity [21]?
A: Dose-dependent effect

Q: And the inhibition [22]?
A: Active

Q: And the inhibition [23]?
A: Active

Q: What about the Activity [24] of the same molecule?
A: 0.29%

Q: And the Activity [25]?
A: 11.9%

Q: And the IC50 [26]?
A: > 100000 nM

Q: And the IC50 [27]?
A: 27 nM

Q: What about the Activity [28] of the same molecule?
A: 0.68%

Q: And the Activity [29]?
A: 28.22%

Q: What about the Activity [30] of the same molecule?
A: 9.88%

Q: What about the Activity [31] of the same molecule?
A: 4%

Q: And the Activity [32]?
A: 0.75%

Q: And the IC50 [33]?
A: 270 nM

Q: And the IC50 [34]?
A: > 100000 nM
